{"source": "patent US7435555B2", "about": "“Asparagine hydroxylation of the CAD domain of a HIF protein” (Adelaide Research and Innovation Pty Ltd., priority 2001, dated 2008)", "type_in_all_cases": "cell-based, human", "key": {"[1]": {"test_system": "Gal4DBD/HIF-2α 774-874 CAD chimera", "assay": "Gal4 response element luciferase reporter gene assay, GalDBD/HIF-2α CAD chimera", "details": "cells treated 16 h at normoxia", "description": "FIG. 3. Expression vectors for either the Gal4 DNA Binding Domain or the indicated GalDBD HIF-1α and HIF-2α CAD chimeric proteins were contransfected with a Gal4 response element containing luciferase reporter gene and an internal control renilla luciferase reporter gene. […] Data are the average of three transfections±standard deviation.\nFIG. 6. […] A) Sequence comparisons show conservation of the critical Asn between HIF-1α and HIF-2α across species. […] HEK293T cells were transfected according to the protocol of FIG. 3A and data represent the average of triplicate transfections +/standard deviation. (C). The wild type and mutant Ga14DBD/HIF chimeras used in A) are expressed at the same levels during transient transfection. Whole cell extracts of control or transfected cells were separated by SDS-PAGE and proteins detected by immunoblotting with antibodies directed against the C-terminus of HIF-1α (C) or HIF2α.\nHuman embryonic kidney 293T and rat pheochromocytoma PC12 cells were maintained in Dulbecco's Modified Eagles Medium (DMEM) supplemented with 10% foetal calf serum. For transient transfections, cells were plated onto 24 well plates at a density of 2.0×10^4 cells/well. […] After 16 hrs treatment, cells were harvested, Iysed and extracts analysed using the Dual Luciferase Reporter Assay Kit as outlined by the manufacturer (Promega). […]"}, "[2]": {"test_system": "HIF-2α CAD Asn851 hydroxylation", "assay": "Mass spectrometry of HIF-2α CAD purified from stable 293T cells (hydroxylation of Asn851)", "details": "DP 100 μM, 3 h; MALDI-TOF", "protocol": "FIG. 5. A) Mass spectrometry of the HIF-2α CAD purified from cells incubated in normoxia or subjected to hypoxia (<1% O2, 3 h) or DP (100 μM, 3 h) treatments. A & B) Magnified views of the MALDI-TOF spectra corresponding to hydroxylation (+16 Da) of the peptide […] [SED ID NO. 1], which appears in the normoxic but not hypoxic or DP treated samples. […] Fragments were also observed for the modified sequence at m/z values of +16 Da higher than Asn851-containing fragments of the unmodified sequence. The boundary of the coincident and +16 Da fragment ions is indicated by the symbol N+ on the fragment ion spectrum of the modified sequence.\nSamples for MS analysis were isolated from a 293T stable cell line that expressed HIF-2α774-874. After normoxic culture or treatment with hypoxia or DP as specified, cells were washed once with PBS, then lysed with binding buffer (100 mM Na-Phosphate pH8.0, 8M Urea, 0.1% NP40, 0.15M NaCl2, 5 mM imidazole, 1 mM βMe, 0.05 mM Na3VO4, 0.1 mM NaF, 0.5 mM β-Glycerophosphate, protease inhibitors). […]\nTryptic digests were analyzed using a Bruker Reflex MALDI-TOF-MS operated in the positive ion reflector mode. MALDI-TOF-MS data were acquired and analyzed using the Bruker XMass suite of software (Lopaticki et al., 1998; Pitt et al., 2000; Gorman et al., 1997). […]"}, "HIF-2α CAD": {"test_system": "HIF-2α CAD", "assay": "Immunoblot of HIF-2α CAD protein expression in stable transfected HEK 293T cells", "details": "treatment 3 h, anti-myc immunoblot", "description": "FIG. 4. A) Schematic showing domains of HIF-2α and the construct containing the CAD region fused to a 6xHis tag/myc epitope which was used to generate a stable expressing cell line. B) Protein expression of the HIF-2α CAD is not increased by hypoxia or DP treatment. […] The 293T control lane contains extract from cells stably transfected with blank expression vector. C) Sypro-Ruby (Bio-Rad) stained SDSPAGE gel showing an example of HIF-2α CAD purified from stable transfected cells. Extracts from non transfected cells subjected to the same purification procedure lack the HIF-2α CAD band.The higher molecular weight contaminant that is co-purified by the procedure was identified as 60S ribosomal protein L27A by mass spectrometry.\nIsolated cell pellets were lysed in whole cell extract (WCE) buffer (10 mM Tris pH7.9, 0.42M NaCl2, 0.5% NP40, 25% Glycerol, 0.2 mM EDTA, 1.5 mM MgCl2, 1 mM DTT, protease inhibitors) for 10 min at 4° C. Lysed extracts were then clarified by centrifugation at 12,000 g for 15 min. The protein concentration of clarified lysates was determined using the Bradford assay (Biorad). Protein samples were then resolved on 12.5% Tris-Tricine gels. For the HIF-2α774-874 stable line, 10 μg of WCE was analysed by immunoblotting with the anti-myc 9E10 monoclonal antibody. […]"}, "[3]": {"test_system": "Gal4DBD/HIF-1α 727-826 CAD chimera", "assay": "Gal4 response element luciferase reporter gene assay, GalDBD/HIF-1α CAD chimera", "details": "cells treated 16 h at normoxia"}}}
{"smiles": "c1ccc(-c2ccccn2)nc1", "note": "[DP, 2,2′-dipyridyl]", "values": [{"measurement": "activity of the Gal4DBD/HIF-2α CAD chimera on treatment of cells", "setting": "[1]", "value": "induces activity of the CADs"}, {"measurement": "+16 Da (hydroxylated) form of peptide 846-YDCEVNVPVPGSSTLLQGR-864", "setting": "[2]", "value": "complete lack of the +16 mass increase"}, {"measurement": "protein expression of the HIF-2α CAD", "setting": "HIF-2α CAD", "value": "not increased"}]}
{"smiles": "COC(=O)CNC(=O)C(=O)OC", "note": "[DMOG, dimethyl-oxalylglycine]", "values": [{"measurement": "activity of the Gal4DBD/HIF-2α CAD chimera on treatment of cells", "setting": "[1]", "value": "activation of the Gal4DBD/HIF-1α and Gal4DBD/HIF-2α CAD chimeras to a similar extent as that seen during treatment with hypoxia"}, {"measurement": "activity of the Gal4DBD/HIF-1α CAD chimera on treatment of cells", "setting": "[3]", "value": "activation of the Gal4DBD/HIF-1α and Gal4DBD/HIF-2α CAD chimeras to a similar extent as that seen during treatment with hypoxia"}]}
